The values below come from patent publication US20050124559A1, “Antimicrobial agent” (priority 2002, published 2005).

Format in all cases: cell-based
One test has as its system N. nova. Description: MIC by BACTEC or Mueller-Hinton agar method. As for the experimental part: (§1) Inhibition of various bacteria by compound 1 (n=8) is described in Table 1. The biological data were determined by either the BACTEC or Mueller-Hinton agar method and expressed as a minimum inhibitory concentration (MIC).
The test system of test [1] is S. aureus (Coagulas-negative). In words: MIC by BACTEC or Mueller-Hinton agar method. As for the experimental part:
as §1

In test [2] the test system is Mycobacterium tuberculosis. Description: MIC by BACTEC or Mueller-Hinton agar method. The protocol: as §1
Test [3] relates to Rapid Growing Atypical Mycobacterial Strains. In words: MIC by BACTEC or Mueller-Hinton agar method. The protocol:
as §1

Another test deals with Nocardia asteroides. In words: MIC by BACTEC or Mueller-Hinton agar method. As for the experimental part:
as §1

For a further test, the system named is M. abscessus. In words: MIC by BACTEC or Mueller-Hinton agar method. As for the experimental part: as §1
Test [4] concerns Staphylococcus aureus. In words: MIC by BACTEC or Mueller-Hinton agar method. As for the experimental part:
as §1

In the next test the test system is Enterococci sp. In words: MIC by BACTEC or Mueller-Hinton agar method. The protocol:
as §1

The test system of the next test is M. fortuitum. In words: MIC by BACTEC or Mueller-Hinton agar method. As for the experimental part:
as §1

The subject of another test is M. avium intracellulare. In words: MIC by BACTEC or Mueller-Hinton agar method. The protocol: as §1
A further test deals with Enterococcus faecalis. In words: Zone Inhibition Assay. On the set-up: key: +++=large zone of inhibition; −=no zone of inhibition. To be noted: 3 μL of a 10 μg/mL sample on a filter disc on a lawn of bacteria, arbitrary scale. As for the experimental part: (§2) Inhibition of various bacteria by compound 1 (n=6, and n=4) are described in Table 2. The biological data were determined by a Zone Inhibition Assay method. The zone of inhibition was measured using an arbitrary scale: (+++=large zone of inhibition, −=no zone of inhibition). Compound 1 (n=6, and n=4) were tested by spotting 3 μL of a 10 μg/mL sample onto a filter disc which was placed on a lawn of bacteria. N.B. Compound 1 (n=8) was used as a positive control.

For test [5], the system named is Staphylococcus aureus. In words: Zone Inhibition Assay. The arrangement: key: +++=large zone of inhibition; −=no zone of inhibition. To be noted: 3 μL of a 10 μg/mL sample on a filter disc on a lawn of bacteria, arbitrary scale. The protocol:
as §2

The next test has as its system Bacillus subtilis. Description: Zone Inhibition Assay. On the set-up: key: +++=large zone of inhibition; −=no zone of inhibition. To be noted: 3 μL of a 10 μg/mL sample on a filter disc on a lawn of bacteria, arbitrary scale. The protocol:
as §2

Another test relates to Mycobacterium smegmatis. Description: Zone Inhibition Assay. The arrangement: key: +++=large zone of inhibition; −=no zone of inhibition. As to conditions: 3 μL of a 10 μg/mL sample on a filter disc on a lawn of bacteria, arbitrary scale. As for the experimental part: as §2

For the compound `CCCCCCCCCCN(CCCCCCCCCC)S[C@@H]1O[C@@H]([C@H](O)CO)[C@H](O)[C@H]1O` [Compound 1 (n=8), N,N-Didecyl-S-(1-thio-β-D-galactofuranosyl)sulfenamide], the MIC was under 5 µg/mL with N. nova; 5 to 50 µg/mL in test [1]; under 5 µg/mL in [2]; under 5 µg/mL in test [3]; under 5 µg/mL against Nocardia asteroides; under 5 µg/mL against M. abscessus. The MIC with Staphylococcus aureus [4] was 5 to 50 µg/mL; in the test on Enterococci sp., 5 to 50 µg/mL; in the test on M. fortuitum, under 5 µg/mL; against M. avium intracellulare, under 5 µg/mL.
On to `CCCCCCCCN(CCCCCCCC)S[C@@H]1O[C@@H]([C@H](O)CO)[C@H](O)[C@H]1O` [1 (n=6), N,N-Dioctyl-S-(1-thio-β-D-galactofuranosyl)sulfenamide], for which the “Zone of Inhibition” value in the test on Enterococcus faecalis, with Staphylococcus aureus [5], in the test with Bacillus subtilis and with Mycobacterium smegmatis was “+++” in each case.

Broadly, the MIC is the lowest concentration found to suppress growth.
